From ChEMBL document CHEMBL5154733, “Targeting NLRP3 signaling by a novel-designed sulfonylurea compound for inhibition of microglial inflammation” (Bioorg Med Chem, 2022)
The source made the active and inactive calls. The rule behind the calls is not given here.

Tests used:
[1] = Inhibition of LPS-induced of IL-1beta expression in mouse N9 cells assessed as relative IL-1beta expression at 2.8 uM incubated for 24 hrs dosed 24 hrs after LPS stimulation by Quantitative PCR assay (reference value: 7 fold); format: functional
N9 [2] = assay: Inhibition of LPS-induced of nitric oxide production in mouse N9 cells at 2.8 uM incubated for 24 hrs dosed 24 hrs after LPS stimulation by DAF-FM dye based fluorescence assay; format: functional
N9 [3] = assay: Inhibition of LPS-induced of TNF-alpha expression in mouse N9 cells at 2.8 uM incubated for 24 hrs dosed 24 hrs after LPS stimulation by ELISA; format: functional
[4] = Toxicity in mouse N9 cells assessed as effect on cell viability at 0.35 to 5.6 uM incubated for 24 hrs by MTT assay; format: cell-based; settings: n9, 24 h, dose 0.35-5.6 µM
N9 [5] = assay: Inhibition of LPS-induced of iNOS expression in mouse N9 cells at 2.8 uM incubated for 24 hrs dosed 24 hrs after LPS stimulation by Western blot; format: functional
[6] = Inhibition of LPS-induced of NLRP3 expression in mouse N9 cells assessed as NLRP3 expression level at 2.8 uM incubated for 24 hrs dosed 24 hrs after LPS stimulation by Quantitative PCR assay; format: functional; parameters: scale not given: the % may be the effect or the level left
[7] = Inhibition of LPS-induced of NLRP3 expression in mouse N9 cells assessed as NLRP3 expression level at 0.7 uM incubated for 24 hrs dosed 24 hrs after LPS stimulation by Quantitative PCR assay; format: functional; parameters: scale not given: the % may be the effect or the level left
N9 [8] = assay: Inhibition of LPS-induced of NLRP3 expression in mouse N9 cells at 0.7 to 2.8 uM incubated for 24 hrs dosed 24 hrs after LPS stimulation by Quantitative PCR assay; format: functional; settings: dose 0.7-2.8 µM, DDE = dose-dependent effect
[9] = Inhibition of LPS-induced of NLRP3 expression in mouse N9 cells assessed as NLRP3 expression level at 1.4 uM incubated for 24 hrs dosed 24 hrs after LPS stimulation by Quantitative PCR assay; format: functional; parameters: scale not given: the % may be the effect or the level left
Brain [10] = assay: Suppression of microglia activation in C57BL/6 mouse brain assessed as maintenance of microglia morphology by measuring Iba1 positive cells in cerebral cortex area at 55 mg/kg, ip by immunofluorescence staining; format: functional, organism-based
[11] = Inhibition of LPS-induced of IL-1beta expression in mouse N9 cells assessed as IL-1beta level at 2.8 uM incubated for 24 hrs dosed 24 hrs after LPS stimulation by ELISA (reference value: 100 pg/ml); format: functional
[12] = Stabilization of microglia morphology in mouse N9 cells assessed as resting morphology level at 2.8 uM incubated for 24 hrs dosed 24 hrs after LPS stimulation by (reference value: 18%); format: functional
N9 [13] = assay: Inhibition of LPS-induced of phagocytosis in mouse N9 cells assessed as decrease in FAM positive cell number at 2.8 uM incubated for 24 hrs dosed 24 hrs after LPS stimulation by FAM-labeled fluorescent Abeta-42 peptide based fluorescence assay; format: functional
Brain [14] = assay: Suppression of microglia activation in C57BL/6 mouse brain assessed as maintenance of microglia morphology by measuring Iba1 positive cell number in cerebral cortex positive cells in cerebral cortex area at 55 mg/kg, ip by immunofluorescence staining; format: functional, organism-based
N9 [15] = assay: Inhibition of LPS-induced of NLRP3 expression in mouse N9 cells at 2.8 uM incubated for 24 hrs dosed 24 hrs after LPS stimulation by Western blot; format: functional
N9 [16] = assay: Inhibition of LPS-induced of phagocytosis in mouse N9 cells assessed as decrease in intracellular FAM-Abeta42 fluorescent intensity at 2.8 uM incubated for 24 hrs dosed 24 hrs after LPS stimulation by FAM-labeled fluorescent Abeta-42 peptide based fluorescence assay; format: functional
N9 [17] = assay: Inhibition of LPS-induced Caspase-1 expression in mouse N9 cells at 2.8 uM incubated for 24 hrs dosed 24 hrs after LPS stimulation by FLICA 660 Caspase-1 assay; format: functional

## O=C1N(c2cncnc2)CCCN1S(=O)(=O)c1ccc(C(F)(F)F)cc1
[1]
  fold change (FC): 2
N9 [2]
  inhibition: Active
N9 [3]
  inhibition: Active
[4]
  Activity: Non-Toxic
N9 [5]
  inhibition: Active
[6]
  Activity: 100%
[7]
  Activity: 370%
N9 [8]
  inhibition: Dde
[9]
  Activity: 220%
Brain [10]
  Activity: Active
[11]
  Activity: 70 pg/mL
[12]
  Activity: 65%
N9 [13]
  inhibition: Active
Brain [14]
  Activity: Active
N9 [15]
  inhibition: Active
N9 [16]
  inhibition: Active
N9 [17]
  inhibition: Active
